Assay results taken from publication PMC11163988, “Cloning, expression, and purification of an α-carbonic anhydrase from Toxoplasma gondii to unveil its kinetic parameters and anion inhibition profile” (Journal of Enzyme Inhibition and Medicinal Chemistry, 2024).

What follows are compounds tested against Tg_CA (Toxoplasma gondii α-CA) (Toxoplasma gondii, UniProt S8F479) (assay: biochemical). Conditions: not given.
Tg_CA (Toxoplasma gondii α-CA), sequence (S8F479 486-829 limits assumed): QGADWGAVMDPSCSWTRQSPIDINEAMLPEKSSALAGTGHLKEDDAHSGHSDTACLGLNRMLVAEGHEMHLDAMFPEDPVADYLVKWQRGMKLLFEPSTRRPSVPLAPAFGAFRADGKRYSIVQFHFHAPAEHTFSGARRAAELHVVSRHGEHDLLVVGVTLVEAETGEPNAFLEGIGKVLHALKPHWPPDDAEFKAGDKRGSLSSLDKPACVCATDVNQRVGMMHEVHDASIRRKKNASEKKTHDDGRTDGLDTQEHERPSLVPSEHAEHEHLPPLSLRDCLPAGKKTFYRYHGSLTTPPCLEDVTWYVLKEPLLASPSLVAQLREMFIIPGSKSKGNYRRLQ
Type: biochemical
Work on `OB(O)c1ccccc1` [Ph-B(OH)2, phenylboronic acid] yielded a Ki of 5.1 mM.

Same assay, conditions: pH 7.5; read-out: KI (mM) Tg_CAα
`O=S(=O)(O)NS(=O)(=O)O` [NH(SO3)2^2–, iminodisulfonate] showed a Ki of 8.5 mM.
Work on `F[B-](F)(F)F` [BF4^–, tetrafluoroborate] yielded a Ki of 25 mM.
With `[O]=[Ru](=[O])(=[O])=[O]` [RuO4^–, perruthenate] the Ki was 2.3 mM.
`Cl` [Cl^–, chloride] gave a Ki greater than 100 mM.
`CCN(CC)C(=S)S` [Et2NCS2^–, N,N-diethyldithiocarbamate] showed a Ki of 3.1 mM.
`O=S(O)O` [HSO3^–, bisulphite] showed a Ki of 9.1 mM.
For `NS(N)(=O)=O` [H2NSO2NH2, sulfamide], the Ki was 0.92 mM.
Work on `O=NO` [NO2^–, nitrite] yielded a Ki of 6.4 mM.
`O=P(O)(O)OP(=O)(O)O` [P2O7^4–, diphosphate] gave a Ki of 35.7 mM.
In the case of `N#CO` [CNO^–, cyanate], the Ki is reported as 49.6 mM.
With `[N-]=[N+]=[N-]` [N3^–, azide] the Ki was greater than 100 mM.
Compound `N#CS` [SCN^–, thiocyanate] has a Ki of 31.9 mM.
`OB1OB2OB(O)OB(O1)O2` [B4O7^2–, tetraborate] was tested, and the Ki was 63.9 mM.
With `N#C[SeH]` [SeCN^–, selenocyanate] the Ki was greater than 100 mM.
For `F[P-](F)(F)(F)(F)F` [PF6^–, haxafluorophosphate], the Ki was 1.9 mM.
Work on `NS(=O)(=O)O` [H2NSO3H, sulphamic acid] yielded a Ki of 0.68 mM.
In the case of `O=[N+]([O-])O` [NO3^–, nitrate], the Ki is reported as 8.5 mM.
`[O]=[Re](=[O])(=[O])[OH]` [ReO4^–, perrhenate] was tested, and the Ki was 3.4 mM.
`S` [HS^–, hydrogensulfide] showed a Ki of 45.7 mM.
`O=S(=O)(O)O` [SO4^2–, sulphate] showed a Ki of 6 mM.
Work on `O=C(O)O` [CO3^2–, carbonate] yielded a Ki of 98.2 mM.
For `Br` [Br^–], the Ki was greater than 100 mM.
`O=S(=O)(O)C(F)(F)F` [CF3SO3^–, triflate] gave a Ki of 7.1 mM.
`[O]=[V]([OH])([OH])[O][V](=[O])([OH])[OH]` [V2O7^4–, divanadate] was tested, and the Ki was 39.8 mM.
In the case of `O=C(O)O` [HCO3^–, bicarbonate], the Ki is reported as greater than 100 mM.
`F` [F^–] was tested, and the Ki was greater than 100 mM.
`S=C(S)S` [CS3^2–, trithiocarbonate] gave a Ki of 4.8 mM.
With `O=S(=O)(O)OOS(=O)(=O)O` [S2O8^2–, peroxydisulfate] the Ki was 26.6 mM.
For `I` [I^–], the Ki was greater than 100 mM.
With `O=[Te](=O)(O)O` [TeO4^2–, tellurate] the Ki was 2.5 mM.
Work on `[O-][Cl+3]([O-])([O-])O` [ClO4^–, perchlorate] yielded a Ki of 77.8 mM.

What follows are compounds tested against hCA II (Homo sapiens, UniProt P00918) (assay: stopped-flow CO2 hydrase assay, hCA II). Conditions: 20 mM Hepes pH 7.5, 20 mM NaClO4, mean from 3 assays.
Type: biochemical
Compound `F[P-](F)(F)(F)(F)F` [PF6^–, haxafluorophosphate] has a Ki greater than 100 mM.
